# Tested on: 873145-292-R-J1-PDC complex spheroid viability
# Assay: Anticancer human tumor 873145-292-R-J1-PDC patient-derived renal clear cell carcinoma cell line growth inhibition [POLQ]
# Settings: for IC50: curve of first compound; for viability, T/C: stronger effect = lower value
# Method in brief: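 Patient-derived tumour cells were co-cultured with HUVEC and mesenchymal stem cells as multicellular spheroids at 37 °C. They were treated with POLQ inhibitors (novobiocin, ART-558, RP6685) alone or combined with other agents. Top concentrations were at or near clinical Cmax (otherwise 10 microM; SN-38 at 1 microM), decreasing in half-log steps.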
# [1] = second compound 0.0316 µM, first compound 0.00316 µM
# [2] = second compound 0.0316 µM, first compound 0.01 µM
# [3] = second compound 0.0316 µM, first compound 0.0316 µM
# [4] = second compound 0.0316 µM, first compound 0.1 µM
# [5] = second compound 0.1 µM, first compound 0.00316 µM
# [6] = second compound 0.1 µM, first compound 0.01 µM
# [7] = second compound 0.1 µM, first compound 0.0316 µM
# [8] = second compound 0.1 µM, first compound 0.1 µM
# [9] = second compound 0.316 µM, first compound 0.00316 µM
# [10] = second compound 0.316 µM, first compound 0.01 µM
# [11] = second compound 0.316 µM, first compound 0.0316 µM
# [12] = second compound 0.316 µM, first compound 0.1 µM
# [13] = second compound 1 µM, first compound 0.00316 µM
# [14] = second compound 1 µM, first compound 0.01 µM
# [15] = second compound 1 µM, first compound 0.0316 µM
# [16] = second compound 1 µM, first compound 0.1 µM
# [17] = second compound 3.16 µM, first compound 0.00316 µM
# [18] = second compound 3.16 µM, first compound 0.01 µM
# [19] = second compound 3.16 µM, first compound 0.0316 µM
# [20] = second compound 3.16 µM, first compound 0.1 µM
# [21] = second compound 10 µM, first compound 0.00316 µM
# [22] = second compound 10 µM, first compound 0.01 µM
# [23] = second compound 10 µM, first compound 0.0316 µM
# [24] = second compound 10 µM, first compound 0.1 µM
# [25] = second compound 0.0316 µM, first compound 0.316 µM
# [26] = second compound 0.0316 µM, first compound 1 µM
# [27] = second compound 0.1 µM, first compound 0.316 µM
# [28] = second compound 0.1 µM, first compound 1 µM
# [29] = second compound 0.316 µM, first compound 0.316 µM
# [30] = second compound 0.316 µM, first compound 1 µM
# [31] = second compound 1 µM, first compound 0.316 µM
# [32] = second compound 1 µM, first compound 1 µM
# [33] = second compound 3.16 µM, first compound 0.316 µM
# [34] = second compound 3.16 µM, first compound 1 µM
# [35] = second compound 10 µM, first compound 0.316 µM
# [36] = second compound 10 µM, first compound 1 µM
# [37] = second compound 0.0316 µM, first compound 3.16 µM
# [38] = second compound 0.0316 µM, first compound 10 µM
# [39] = second compound 0.1 µM, first compound 3.16 µM
# [40] = second compound 0.1 µM, first compound 10 µM
# [41] = second compound 0.316 µM, first compound 3.16 µM
# [42] = second compound 0.316 µM, first compound 10 µM
# [43] = second compound 1 µM, first compound 3.16 µM
# [44] = second compound 1 µM, first compound 10 µM
# [45] = second compound 3.16 µM, first compound 3.16 µM
# [46] = second compound 3.16 µM, first compound 10 µM
# [47] = second compound 10 µM, first compound 3.16 µM
# [48] = second compound 10 µM, first compound 10 µM
# 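Note: spheroids exposed to compounds for 7 days before viability readout.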
# 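Throughout, for viability, T/C: luminescence signal used as surrogate for viable cell content; 100% = DMSO vehicle control viability.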
smiles,measurement,setting,value
CC[C@@]1(O)C(=O)OCc2c1cc1n(c2=O)Cc2cc3c(CN(C)C)c(O)ccc3nc2-1 + Nc1ccc(C#CCN(C(=O)Cc2ncc(C(F)(F)F)cc2C(F)(F)F)c2ccc(F)cc2)nn1,IC50,second compound 0.0316 µM,> 100 nM
same,IC50,second compound 0.1 µM,> 100 nM
same,IC50,second compound 0.316 µM,> 100 nM
same,IC50,second compound 1 µM,> 100 nM
same,IC50,second compound 3.16 µM,> 100 nM
same,IC50,second compound 10 µM,> 100 nM
same,"viability, T/C","second compound 0.0316 µM, first compound 0.000316 µM",109%
same,"viability, T/C","second compound 0.0316 µM, first compound 0.001 µM",116%
same,"viability, T/C",[1],96.9%
same,"viability, T/C",[2],92%
same,"viability, T/C",[3],95.8%
same,"viability, T/C",[4],56.4%
same,"viability, T/C","second compound 0.1 µM, first compound 0.000316 µM",112%
same,"viability, T/C","second compound 0.1 µM, first compound 0.001 µM",107%
same,"viability, T/C",[5],107%
same,"viability, T/C",[6],107%
same,"viability, T/C",[7],99.3%
same,"viability, T/C",[8],52.7%
same,"viability, T/C","second compound 0.316 µM, first compound 0.000316 µM",104%
same,"viability, T/C","second compound 0.316 µM, first compound 0.001 µM",105%
same,"viability, T/C",[9],92%
same,"viability, T/C",[10],111%
same,"viability, T/C",[11],95.5%
same,"viability, T/C",[12],53.4%
same,"viability, T/C","second compound 1 µM, first compound 0.000316 µM",115%
same,"viability, T/C","second compound 1 µM, first compound 0.001 µM",99.2%
same,"viability, T/C",[13],98.6%
same,"viability, T/C",[14],91%
same,"viability, T/C",[15],106%
same,"viability, T/C",[16],59.6%
same,"viability, T/C","second compound 3.16 µM, first compound 0.000316 µM",114%
same,"viability, T/C","second compound 3.16 µM, first compound 0.001 µM",112%
same,"viability, T/C",[17],112%
same,"viability, T/C",[18],102%
same,"viability, T/C",[19],93.5%
same,"viability, T/C",[20],63.9%
same,"viability, T/C","second compound 10 µM, first compound 0.000316 µM",109%
same,"viability, T/C","second compound 10 µM, first compound 0.001 µM",111%
same,"viability, T/C",[21],124%
same,"viability, T/C",[22],119%
same,"viability, T/C",[23],103%
same,"viability, T/C",[24],63.2%
CCc1c2c(nc3ccc(O)cc13)-c1cc3c(c(=O)n1C2)COC(=O)[C@]3(O)CC + Nc1ccc(C#CCN(C(=O)Cc2ncc(C(F)(F)F)cc2C(F)(F)F)c2ccc(F)cc2)nn1,IC50,second compound 0.0316 µM,143 nM
same,IC50,second compound 0.1 µM,66.2 nM
same,IC50,second compound 0.316 µM,119 nM
same,IC50,second compound 1 µM,114 nM
same,IC50,second compound 3.16 µM,79 nM
same,IC50,second compound 10 µM,173 nM
same,"viability, T/C",[1],104%
same,"viability, T/C",[2],99.2%
same,"viability, T/C",[3],62.1%
same,"viability, T/C",[4],59.2%
same,"viability, T/C",[25],44.1%
same,"viability, T/C",[26],36.2%
same,"viability, T/C",[5],106%
same,"viability, T/C",[6],102%
same,"viability, T/C",[7],60%
same,"viability, T/C",[8],48.7%
same,"viability, T/C",[27],50.9%
same,"viability, T/C",[28],30.2%
same,"viability, T/C",[9],114%
same,"viability, T/C",[10],87.7%
same,"viability, T/C",[11],62.2%
same,"viability, T/C",[12],54.5%
same,"viability, T/C",[29],44.5%
same,"viability, T/C",[30],28.9%
same,"viability, T/C",[13],99.8%
same,"viability, T/C",[14],85.2%
same,"viability, T/C",[15],66.4%
same,"viability, T/C",[16],51.5%
same,"viability, T/C",[31],41.7%
same,"viability, T/C",[32],39.9%
same,"viability, T/C",[17],94.5%
same,"viability, T/C",[18],97.8%
same,"viability, T/C",[19],67.6%
same,"viability, T/C",[20],47.9%
same,"viability, T/C",[33],42%
same,"viability, T/C",[34],35.9%
same,"viability, T/C",[21],111%
same,"viability, T/C",[22],94.5%
same,"viability, T/C",[23],66.8%
same,"viability, T/C",[24],55.8%
same,"viability, T/C",[35],47.4%
same,"viability, T/C",[36],34.9%
O=C(c1cc(Cc2n[nH]c(=O)c3ccccc23)ccc1F)N1CCN(C(=O)C2CC2)CC1 + Nc1ccc(C#CCN(C(=O)Cc2ncc(C(F)(F)F)cc2C(F)(F)F)c2ccc(F)cc2)nn1,IC50,second compound 0.0316 µM,> 10000 nM
same,IC50,second compound 0.1 µM,> 10000 nM
same,IC50,second compound 0.316 µM,> 10000 nM
same,IC50,second compound 1 µM,> 10000 nM
same,IC50,second compound 3.16 µM,> 10000 nM
same,IC50,second compound 10 µM,> 10000 nM
same,"viability, T/C",[3],98.5%
same,"viability, T/C",[4],110%
same,"viability, T/C",[25],101%
same,"viability, T/C",[26],106%
same,"viability, T/C",[37],107%
same,"viability, T/C",[38],108%
same,"viability, T/C",[7],112%
same,"viability, T/C",[8],118%
same,"viability, T/C",[27],103%
same,"viability, T/C",[28],102%
same,"viability, T/C",[39],98.1%
same,"viability, T/C",[40],96.2%
same,"viability, T/C",[11],96.4%
same,"viability, T/C",[12],114%
same,"viability, T/C",[29],114%
same,"viability, T/C",[30],105%
same,"viability, T/C",[41],93.8%
same,"viability, T/C",[42],103%
same,"viability, T/C",[15],98.4%
same,"viability, T/C",[16],105%
same,"viability, T/C",[31],114%
same,"viability, T/C",[32],117%
same,"viability, T/C",[43],104%
same,"viability, T/C",[44],88.6%
same,"viability, T/C",[19],104%
same,"viability, T/C",[20],114%
same,"viability, T/C",[33],115%
same,"viability, T/C",[34],110%
same,"viability, T/C",[45],96.2%
same,"viability, T/C",[46],104%
same,"viability, T/C",[23],101%
same,"viability, T/C",[24],105%
same,"viability, T/C",[35],106%
same,"viability, T/C",[36],109%
same,"viability, T/C",[47],100%
same,"viability, T/C",[48],101%
O=c1[nH]cc(F)c(=O)[nH]1 + Nc1ccc(C#CCN(C(=O)Cc2ncc(C(F)(F)F)cc2C(F)(F)F)c2ccc(F)cc2)nn1,IC50,second compound 0.0316 µM,> 10000 nM
same,IC50,second compound 0.1 µM,> 10000 nM
same,IC50,second compound 0.316 µM,> 10000 nM
same,IC50,second compound 1 µM,> 10000 nM
same,IC50,second compound 3.16 µM,> 10000 nM
same,IC50,second compound 10 µM,> 10000 nM
same,"viability, T/C",[3],109%
same,"viability, T/C",[4],103%
same,"viability, T/C",[25],101%
same,"viability, T/C",[26],91.1%
same,"viability, T/C",[37],98.5%
same,"viability, T/C",[38],103%
same,"viability, T/C",[7],104%
same,"viability, T/C",[8],117%
same,"viability, T/C",[27],101%
same,"viability, T/C",[28],105%
same,"viability, T/C",[39],98.3%
same,"viability, T/C",[40],93.7%
same,"viability, T/C",[11],105%
same,"viability, T/C",[12],105%
same,"viability, T/C",[29],87.6%
same,"viability, T/C",[30],98%
same,"viability, T/C",[41],103%
same,"viability, T/C",[42],97.7%
same,"viability, T/C",[15],113%
same,"viability, T/C",[16],107%
same,"viability, T/C",[31],102%
same,"viability, T/C",[32],90.1%
same,"viability, T/C",[43],114%
same,"viability, T/C",[44],95.2%
same,"viability, T/C",[19],118%
same,"viability, T/C",[20],101%
same,"viability, T/C",[33],112%
same,"viability, T/C",[34],105%
same,"viability, T/C",[45],105%
same,"viability, T/C",[46],105%
same,"viability, T/C",[23],107%
same,"viability, T/C",[24],125%
same,"viability, T/C",[35],132%
same,"viability, T/C",[36],116%
same,"viability, T/C",[47],105%
same,"viability, T/C",[48],112%
